Read-outs that look alike come from different tables or passages of the source.
How the values were obtained:
[1] = system: adult Sprague-Dawley rats; assay: Maximal electroshock; type: in vivo, rat; details: MES; for Efficacy in rats (number seizure protected /number tested): low dose i.p. (CLB 17, CBZ 3, VPA 165 mg/kg)
rats = details: rat, cited from earlier work
[2] = Brain pharmacokinetics in rats; details: rat
mice = details: mouse, cited from earlier work
[3] = Brain pharmacokinetics in mice
[4] = Plasma pharmacokinetics in mice; details: CF-1, mouse, in vivo, ip
[5] = Plasma pharmacokinetics in rats; details: Sprague Dawley, rat, in vivo, ip
adult male CF-1 mice [6] = details: mouse, 6 Hz 44 mA, i.p.; cited from earlier work
[7] = system: adult Sprague-Dawley rats; details: rat, MES, i.p.; cited from earlier work
adult male CF-1 mice [8] = assay: 6 Hz 44 mA seizure test in mice; type: in vivo, mouse
[9] = CF-1, mouse, in vivo
in vivo [10] = details: Sprague Dawley, rat, ip
[11] = Sprague Dawley, rat, in vivo
[12] = rat, in vivo
in vivo [13] = details: Sprague Dawley, rat, ip; remark: listed apart in the source
[14] = CF-1, mouse, in vivo; remark: listed apart in the source
adult CF-1 mice [15] = assay: Maximal electroshock; type: in vivo, mouse; details: MES
in vivo [16] = details: CF-1, mouse, ip
in vivo [17] = details: CF-1, mouse, ip; remark: listed apart in the source
adult CF-1 mice [18] = details: mouse, MES, i.p.; cited from earlier work
[19] = low dose i.p.: CLB 17, CBZ 3, VPA 165, LEV 14 mg/kg
[20] = mouse, low dose i.p.: CLB 7, CBZ 7, VPA 260, LEV 20 mg/kg

## CN1C(=O)CC(=O)N(c2ccccc2)c2cc(Cl)ccc21 [CLB, Clobazam]
[1]; time test 0.25 h
  Efficacy in rats (number seizure protected /number tested): 0/4
[1]; time test 0.5 h
  Efficacy in rats (number seizure protected /number tested): 0/4
[1]; time test 1 h
  Efficacy in rats (number seizure protected /number tested): 0/4
[1]; time test 2 h
  Efficacy in rats (number seizure protected /number tested): 0/4
[1]; time test 4 h
  Efficacy in rats (number seizure protected /number tested): 0/4
[1]; time test 8 h
  Efficacy in rats (number seizure protected /number tested): 0/4
[1]; rats, high dose i.p. (CLB 37, VPA 315 mg/kg)
  Seizure protection (in words): seizure protection was observed within the first hour
[1]; rats, low dose i.p. (CLB 17, VPA 165 mg/kg)
  Seizure protection (in words): did not protect
rats; minimum motor impairment test, i.p.
  TD50 - high dose: 37 mg/kg
[2]; Sprague Dawley, in vivo, ip
  Tmax: 15 min
[2]; [19]
  Brain AUC (0-8 hr): 2.88 ng·h/mg
  Brain Cmax: 2.90 ng/mg
  Brain Cmin: 0.027 ng/mg
mice; rotarod test, i.p.
  TD50 - high dose: 17 mg/kg
[3]; CF-1, mouse, in vivo, ip
  Tmax: 15 min
[3]; [20]
  Brain AUC (0-8 hr): 1.74 ng·h/mg
  Brain Cmax: 2.26 ng/mg
  Brain Cmin: 0.014 ng/mg
[4]
  Tmax: 15 min
[5]
  Tmax: 15 min
Adult male CF-1 mice [6]
  ED50 - low dose: 7 mg/kg
[7]
  ED50 - low dose: 17 mg/kg
Adult male CF-1 mice [8]; high dose i.p. (CLB 17, VPA 570, LEV 500 mg/kg), time test 0.25 h
  Efficacy in mice (number seizure protected/number tested): 4/4
Adult male CF-1 mice [8]; high dose i.p. (CLB 17, VPA 570, LEV 500 mg/kg), time test 0.5 h
  Efficacy in mice (number seizure protected/number tested): 4/4
Adult male CF-1 mice [8]; high dose i.p. (CLB 17, VPA 570, LEV 500 mg/kg), time test 1 h
  Efficacy in mice (number seizure protected/number tested): 3/4
Adult male CF-1 mice [8]; high dose i.p. (CLB 17, VPA 570, LEV 500 mg/kg), time test 2 h
  Efficacy in mice (number seizure protected/number tested): 3/4
Adult male CF-1 mice [8]; high dose i.p. (CLB 17, VPA 570, LEV 500 mg/kg), time test 4 h
  Efficacy in mice (number seizure protected/number tested): 1/4
Adult male CF-1 mice [8]; high dose i.p. (CLB 17, VPA 570, LEV 500 mg/kg), time test 8 h
  Efficacy in mice (number seizure protected/number tested): 0/4
Adult male CF-1 mice [8]; low dose i.p. (CLB 7, VPA 260, LEV 20 mg/kg), time test 0.25 h
  Efficacy in mice (number seizure protected/number tested): 2/4
Adult male CF-1 mice [8]; low dose i.p. (CLB 7, VPA 260, LEV 20 mg/kg), time test 0.5 h
  Efficacy in mice (number seizure protected/number tested): 1/4
Adult male CF-1 mice [8]; low dose i.p. (CLB 7, VPA 260, LEV 20 mg/kg), time test 1 h
  Efficacy in mice (number seizure protected/number tested): 3/4
Adult male CF-1 mice [8]; low dose i.p. (CLB 7, VPA 260, LEV 20 mg/kg), time test 2 h
  Efficacy in mice (number seizure protected/number tested): 0/4
Adult male CF-1 mice [8]; low dose i.p. (CLB 7, VPA 260, LEV 20 mg/kg), time test 4 h
  Efficacy in mice (number seizure protected/number tested): 0/4
Adult male CF-1 mice [8]; low dose i.p. (CLB 7, VPA 260, LEV 20 mg/kg), time test 8 h
  Efficacy in mice (number seizure protected/number tested): 0/4

## NC(=O)N1c2ccccc2C=Cc2ccccc21 [CBZ, carbamazepine]
[9]
  High-dose exposures greater than expected from low-dose: 50 - 60%
  Plasma Dose Prop (AUC): 1.49
  Plasma Dose Prop (Cmax): 0.917
[9]; ip
  Plasma t1/2: 1.11 h
In vivo [10]
  Tmax: 15 min
In vivo [10]; Brain t1/2
  half-life: 46.2 min
[1]; time test 0.25 h
  Efficacy in rats (number seizure protected /number tested): 1/4
[1]; time test 0.5 h
  Efficacy in rats (number seizure protected /number tested): 1/4
[1]; time test 1 h
  Efficacy in rats (number seizure protected /number tested): 0/4
[1]; time test 2 h
  Efficacy in rats (number seizure protected /number tested): 0/4
[1]; time test 4 h
  Efficacy in rats (number seizure protected /number tested): 0/4
[1]; time test 8 h
  Efficacy in rats (number seizure protected /number tested): 0/4
[1]; rats, high-dose CBZ i.p.
  Period for which 100% seizure protection was sustained: ~ 2 hrs
  Seizure protection: 100%
[1]; rats, low-dose CBZ i.p., within the first hour
  Seizure protection (% protected): 25%
[11]
  Brain Dose Prop (AUC): 1.89
[11]; ip
  Brain t1/2: 1.20 h
rats; in vivo, ip
  TD50 - high dose: 24 mg/kg
mice; in vivo, ip
  TD50 - high dose: 40 mg/kg
[12]; Sprague Dawley
  Plasma Dose Prop (AUC): 2.29
  Plasma Dose Prop (Cmax): 1.138
[12]; Sprague Dawley, ip
  Plasma t1/2: 1.18 h
[12]
  High-dose concentrations relative to expected from low-dose: approximately two-fold
In vivo [13]
  Tmax: 15 min
In vivo [13]; Plasma t1/2
  half-life: 49.2 min
[14]
  Brain Dose Prop (AUC): 1.64
[14]; ip
  Brain t1/2: 59.4 min
Adult CF-1 mice [15]; high dose i.p. (CBZ 40 mg/kg), time test 0.25 h
  Efficacy in mice (number seizure protected/number tested): 4/4
Adult CF-1 mice [15]; high dose i.p. (CBZ 40 mg/kg), time test 0.5 h
  Efficacy in mice (number seizure protected/number tested): 4/4
Adult CF-1 mice [15]; high dose i.p. (CBZ 40 mg/kg), time test 1 h
  Efficacy in mice (number seizure protected/number tested): 4/4
Adult CF-1 mice [15]; high dose i.p. (CBZ 40 mg/kg), time test 2 h
  Efficacy in mice (number seizure protected/number tested): 4/4
Adult CF-1 mice [15]; high dose i.p. (CBZ 40 mg/kg), time test 4 h
  Efficacy in mice (number seizure protected/number tested): 4/4
Adult CF-1 mice [15]; high dose i.p. (CBZ 40 mg/kg), time test 8 h
  Efficacy in mice (number seizure protected/number tested): 0/4
Adult CF-1 mice [15]; low dose i.p. (CBZ 7 mg/kg), time test 0.25 h
  Efficacy in mice (number seizure protected/number tested): 3/4
Adult CF-1 mice [15]; low dose i.p. (CBZ 7 mg/kg), time test 0.5 h
  Efficacy in mice (number seizure protected/number tested): 3/4
Adult CF-1 mice [15]; low dose i.p. (CBZ 7 mg/kg), time test 1 h
  Efficacy in mice (number seizure protected/number tested): 2/4
Adult CF-1 mice [15]; low dose i.p. (CBZ 7 mg/kg), time test 2 h
  Efficacy in mice (number seizure protected/number tested): 0/4
Adult CF-1 mice [15]; low dose i.p. (CBZ 7 mg/kg), time test 4 h
  Efficacy in mice (number seizure protected/number tested): 0/4
Adult CF-1 mice [15]; low dose i.p. (CBZ 7 mg/kg), time test 8 h
  Efficacy in mice (number seizure protected/number tested): 0/4
Adult CF-1 mice [15]; mice, high dose CBZ 40 mg/kg i.p.
  Seizure protection (in words): complete protection
In vivo [16]
  Tmax: 15 min
In vivo [16]; Brain t1/2
  half-life: 31.2 min
[7]
  ED50 - low dose: 3 mg/kg
In vivo [17]
  Tmax: 15 min
In vivo [17]; Plasma t1/2
  half-life: 78 min
Adult CF-1 mice [18]
  ED50 - low dose: 7 mg/kg

Source: article PMC9669179 (Epilepsia, 2022)
